Test results: patent US20230111310A1, “CARBOXYLIC ACID DERIVATIVE-SUBSTITUTED IMINO ARYL COMPOUND, PREPARATION METHOD THEREFOR, HERBICIDAL COMPOSITION AND USE THEREOF” (Qingdao Kingagroot Chemical Compound Co., Ltd., priority 2020, published 2023)

Legend:
Format in all cases: in vivo
Abutilon theophrasti [1] = experiment: Weeding effect in post-emergence stage; conditions: Dose 15 g/ha; level of fresh weight growth control rate
Procedure, shortened: (§1)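 Weeds were treated post-emergence at 2-3 leaves with compound doses from 7.5 up to 500 g/ha, formulated in acetone–Tween 80 with methyl oleate synergist. Efficacy was assessed as growth control after 3 weeks.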

Alopecurus japonicus = experiment: Weeding effect in post-emergence stage; conditions: Dose 15 g/ha; level of fresh weight growth control rate
Procedure, shortened: as §1

Digitaria sanguinalis = experiment: Weeding effect in post-emergence stage; conditions: Dose 15 g/ha; level of fresh weight growth control rate
Procedure, shortened: as §1

Eleusine indica = experiment: Weeding effect in post-emergence stage; conditions: Dose 15 g/ha; level of fresh weight growth control rate
Procedure, shortened: as §1

Setaria viridis [2] = experiment: Weeding effect in post-emergence stage; conditions: Dose 15 g/ha; level of fresh weight growth control rate
Procedure, shortened: as §1

Echinochloa crusgalli = experiment: Weeding effect in post-emergence stage; conditions: Dose 15 g/ha; level of fresh weight growth control rate
Procedure, shortened: as §1

Abutilon theophrasti [3] = experiment: Weeding effect in pre-emergence stage; conditions: 30 g/ha, 4 weeks
Procedure, shortened: (§2)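 Test compounds were dissolved in acetone with tween 80, diluted with water and sprayed right after sowing, with seeds covered by 0.5-2 cm of soil. Rates were 500 to 7.5 g/ha. Growth control was scored against activity-level criteria after 4 weeks in the greenhouse.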

Amaranthus retroflexus = experiment: Weeding effect in pre-emergence stage; conditions: 30 g/ha, 4 weeks
Procedure, shortened: as §2

Capsella bursa-pastoris = experiment: Weeding effect in pre-emergence stage; conditions: 30 g/ha, 4 weeks
Procedure, shortened: as §2

Descurainia sophia = experiment: Weeding effect in pre-emergence stage; conditions: 30 g/ha, 4 weeks
Procedure, shortened: as §2

Setaria viridis [4] = experiment: Weeding effect in pre-emergence stage; conditions: 30 g/ha, 4 weeks
Procedure, shortened: as §2

Veronica didyma Tenore = experiment: Weeding effect in pre-emergence stage; conditions: 30 g/ha, 4 weeks
Procedure, shortened: as §2

Peanut = experiment: Pre-emergence stage, crop selectivity; conditions: 30 g/ha, 4 weeks
Procedure, shortened: as §2

Soybeans = experiment: Pre-emergence stage, crop selectivity; conditions: 30 g/ha, 4 weeks
Procedure, shortened: as §2

corn = experiment: Pre-emergence stage, crop selectivity; conditions: 30 g/ha, 4 weeks
Procedure, shortened: as §2

cotton = experiment: Pre-emergence stage, crop selectivity; conditions: 30 g/ha, 4 weeks
Procedure, shortened: as §2

C[C@@H](O/N=C/c1cc(-n2c(=O)cc(C(F)(F)F)n(C)c2=O)c(F)cc1Cl)C(=O)OCC1CCCO1 (stereo partly drawn) [264(R)]
Weeding effect in post-emergence stage, Abutilon theophrasti (Abutilon theophrasti [1]): 5 (Level 5: growth control rate is above 85%)
Weeding effect in post-emergence stage, Alopecurus japonicus (Alopecurus japonicus): 5 (Level 5: growth control rate is above 85%)
Weeding effect in post-emergence stage, Digitaria sanguinalis (Digitaria sanguinalis): 5 (Level 5: growth control rate is above 85%)
Weeding effect in post-emergence stage, Eleusine indica (Eleusine indica): 5 (Level 5: growth control rate is above 85%)
Weeding effect in post-emergence stage, Setaria viridis (Setaria viridis [2]): 5 (Level 5: growth control rate is above 85%)
Weeding effect in post-emergence stage, Echinochloa crusgalli (Echinochloa crusgalli): 5 (Level 5: growth control rate is above 85%)
activity level (growth control rate) Abutilon theophrasti (Abutilon theophrasti [3]): 5 (Level 5: growth control rate is above 85%)
activity level (growth control rate) Amaranthus retroflexus (Amaranthus retroflexus): 5 (Level 5: growth control rate is above 85%)
activity level (growth control rate) Capsella bursa-pastoris (Capsella bursa-pastoris): 5 (Level 5: growth control rate is above 85%)
activity level (growth control rate) Descurainia sophia (Descurainia sophia): 5 (Level 5: growth control rate is above 85%)
activity level (growth control rate) Setaria viridis (Setaria viridis [4]): 5 (Level 5: growth control rate is above 85%)
activity level (growth control rate) Veronica didyma Tenore (Veronica didyma Tenore): 5 (Level 5: growth control rate is above 85%)
plant damage level Peanut (Peanut): 0 (Level 0: growth control rate is less than 5%)
plant damage level Soybeans (Soybeans): 0 (Level 0: growth control rate is less than 5%)
plant damage level Corn (corn): 0 (Level 0: growth control rate is less than 5%)
plant damage level Cotton (cotton): 0 (Level 0: growth control rate is less than 5%)

C[C@@H](O/N=C/c1cc(-n2c(=O)cc(C(F)(F)F)n(C)c2=O)c(F)cc1Cl)C(=O)OCc1ccccc1 [283(R)]
Weeding effect in post-emergence stage, Abutilon theophrasti (Abutilon theophrasti [1]): 5 (Level 5: growth control rate is above 85%)
Weeding effect in post-emergence stage, Alopecurus japonicus (Alopecurus japonicus): 5 (Level 5: growth control rate is above 85%)
Weeding effect in post-emergence stage, Digitaria sanguinalis (Digitaria sanguinalis): 5 (Level 5: growth control rate is above 85%)
Weeding effect in post-emergence stage, Eleusine indica (Eleusine indica): 5 (Level 5: growth control rate is above 85%)
Weeding effect in post-emergence stage, Setaria viridis (Setaria viridis [2]): 5 (Level 5: growth control rate is above 85%)
Weeding effect in post-emergence stage, Echinochloa crusgalli (Echinochloa crusgalli): 5 (Level 5: growth control rate is above 85%)
activity level (growth control rate) Abutilon theophrasti (Abutilon theophrasti [3]): 5 (Level 5: growth control rate is above 85%)
activity level (growth control rate) Amaranthus retroflexus (Amaranthus retroflexus): 5 (Level 5: growth control rate is above 85%)
activity level (growth control rate) Capsella bursa-pastoris (Capsella bursa-pastoris): 5 (Level 5: growth control rate is above 85%)
activity level (growth control rate) Descurainia sophia (Descurainia sophia): 5 (Level 5: growth control rate is above 85%)
activity level (growth control rate) Setaria viridis (Setaria viridis [4]): 5 (Level 5: growth control rate is above 85%)
activity level (growth control rate) Veronica didyma Tenore (Veronica didyma Tenore): 5 (Level 5: growth control rate is above 85%)
plant damage level Peanut (Peanut): 0 (Level 0: growth control rate is less than 5%)
plant damage level Soybeans (Soybeans): 0 (Level 0: growth control rate is less than 5%)
plant damage level Corn (corn): 0 (Level 0: growth control rate is less than 5%)
plant damage level Cotton (cotton): 0 (Level 0: growth control rate is less than 5%)

C[C@@H](O/N=C/c1cc(-n2c(=O)cc(C(F)(F)F)n(C)c2=O)c(F)cc1Cl)C(=O)OCc1ccccn1 [301(R)]
Weeding effect in post-emergence stage, Abutilon theophrasti (Abutilon theophrasti [1]): 5 (Level 5: growth control rate is above 85%)
Weeding effect in post-emergence stage, Alopecurus japonicus (Alopecurus japonicus): 5 (Level 5: growth control rate is above 85%)
Weeding effect in post-emergence stage, Digitaria sanguinalis (Digitaria sanguinalis): 5 (Level 5: growth control rate is above 85%)
Weeding effect in post-emergence stage, Eleusine indica (Eleusine indica): 5 (Level 5: growth control rate is above 85%)
Weeding effect in post-emergence stage, Setaria viridis (Setaria viridis [2]): 5 (Level 5: growth control rate is above 85%)
Weeding effect in post-emergence stage, Echinochloa crusgalli (Echinochloa crusgalli): 5 (Level 5: growth control rate is above 85%)
activity level (growth control rate) Abutilon theophrasti (Abutilon theophrasti [3]): 5 (Level 5: growth control rate is above 85%)
activity level (growth control rate) Amaranthus retroflexus (Amaranthus retroflexus): 5 (Level 5: growth control rate is above 85%)
activity level (growth control rate) Capsella bursa-pastoris (Capsella bursa-pastoris): 5 (Level 5: growth control rate is above 85%)
activity level (growth control rate) Descurainia sophia (Descurainia sophia): 5 (Level 5: growth control rate is above 85%)
activity level (growth control rate) Setaria viridis (Setaria viridis [4]): 5 (Level 5: growth control rate is above 85%)
activity level (growth control rate) Veronica didyma Tenore (Veronica didyma Tenore): 5 (Level 5: growth control rate is above 85%)
plant damage level Peanut (Peanut): 0 (Level 0: growth control rate is less than 5%)
plant damage level Soybeans (Soybeans): 0 (Level 0: growth control rate is less than 5%)
plant damage level Corn (corn): 0 (Level 0: growth control rate is less than 5%)
plant damage level Cotton (cotton): 0 (Level 0: growth control rate is less than 5%)

CC[C@@H](O/N=C/c1cc(-n2c(=O)cc(C(F)(F)F)n(C)c2=O)c(F)cc1Cl)C(=O)OC [315(R)]
Weeding effect in post-emergence stage, Abutilon theophrasti (Abutilon theophrasti [1]): 5 (Level 5: growth control rate is above 85%)
Weeding effect in post-emergence stage, Alopecurus japonicus (Alopecurus japonicus): 5 (Level 5: growth control rate is above 85%)
Weeding effect in post-emergence stage, Digitaria sanguinalis (Digitaria sanguinalis): 5 (Level 5: growth control rate is above 85%)
Weeding effect in post-emergence stage, Eleusine indica (Eleusine indica): 5 (Level 5: growth control rate is above 85%)
Weeding effect in post-emergence stage, Setaria viridis (Setaria viridis [2]): 5 (Level 5: growth control rate is above 85%)
Weeding effect in post-emergence stage, Echinochloa crusgalli (Echinochloa crusgalli): 5 (Level 5: growth control rate is above 85%)
activity level (growth control rate) Abutilon theophrasti (Abutilon theophrasti [3]): 5 (Level 5: growth control rate is above 85%)
activity level (growth control rate) Amaranthus retroflexus (Amaranthus retroflexus): 5 (Level 5: growth control rate is above 85%)
activity level (growth control rate) Capsella bursa-pastoris (Capsella bursa-pastoris): 5 (Level 5: growth control rate is above 85%)
activity level (growth control rate) Descurainia sophia (Descurainia sophia): 5 (Level 5: growth control rate is above 85%)
activity level (growth control rate) Setaria viridis (Setaria viridis [4]): 5 (Level 5: growth control rate is above 85%)
activity level (growth control rate) Veronica didyma Tenore (Veronica didyma Tenore): 5 (Level 5: growth control rate is above 85%)
plant damage level Peanut (Peanut): 0 (Level 0: growth control rate is less than 5%)
plant damage level Soybeans (Soybeans): 0 (Level 0: growth control rate is less than 5%)
plant damage level Corn (corn): 0 (Level 0: growth control rate is less than 5%)
plant damage level Cotton (cotton): 0 (Level 0: growth control rate is less than 5%)

COC[C@@H](O/N=C/c1cc(-n2c(=O)cc(C(F)(F)F)n(C)c2=O)c(F)cc1Cl)C(=O)OC [333(R)]
Weeding effect in post-emergence stage, Abutilon theophrasti (Abutilon theophrasti [1]): 5 (Level 5: growth control rate is above 85%)
Weeding effect in post-emergence stage, Alopecurus japonicus (Alopecurus japonicus): 5 (Level 5: growth control rate is above 85%)
Weeding effect in post-emergence stage, Digitaria sanguinalis (Digitaria sanguinalis): 5 (Level 5: growth control rate is above 85%)
Weeding effect in post-emergence stage, Eleusine indica (Eleusine indica): 5 (Level 5: growth control rate is above 85%)
Weeding effect in post-emergence stage, Setaria viridis (Setaria viridis [2]): 5 (Level 5: growth control rate is above 85%)
Weeding effect in post-emergence stage, Echinochloa crusgalli (Echinochloa crusgalli): 5 (Level 5: growth control rate is above 85%)
activity level (growth control rate) Abutilon theophrasti (Abutilon theophrasti [3]): 5 (Level 5: growth control rate is above 85%)
activity level (growth control rate) Amaranthus retroflexus (Amaranthus retroflexus): 5 (Level 5: growth control rate is above 85%)
activity level (growth control rate) Capsella bursa-pastoris (Capsella bursa-pastoris): 5 (Level 5: growth control rate is above 85%)
activity level (growth control rate) Descurainia sophia (Descurainia sophia): 5 (Level 5: growth control rate is above 85%)
activity level (growth control rate) Setaria viridis (Setaria viridis [4]): 5 (Level 5: growth control rate is above 85%)
activity level (growth control rate) Veronica didyma Tenore (Veronica didyma Tenore): 5 (Level 5: growth control rate is above 85%)
plant damage level Peanut (Peanut): 0 (Level 0: growth control rate is less than 5%)
plant damage level Soybeans (Soybeans): 0 (Level 0: growth control rate is less than 5%)
plant damage level Corn (corn): 0 (Level 0: growth control rate is less than 5%)
plant damage level Cotton (cotton): 0 (Level 0: growth control rate is less than 5%)
